Results as given in patent US20250154169A1, “COMPOUNDS AND METHODS FOR MODULATING SPLICING” (REMIX THERAPEUTICS INC., priority 2021, published 2025).
Like-named read-outs stand apart in the source and are kept apart here.

Assays:
Type in all cases: cell-based, human
MYB mRNA = test: Splicing RT-qPCR assay, MYB canonical (CJ) and alternative (AJ) junction mRNA; conditions: Homo sapiens; for AC50: read-out: MYB AJ (AC50, increase in alternative junction mRNA)
In short: (§1)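 A673 or K562 cells were treated 24 h at 37 °C with an 11-point 3-fold compound dilution series (top 10 uM, DMSO ≤0.25%). Lysates went to one-step RT-qPCR measuring canonical (CJ) and alternative-exon (AJ) junction transcripts, normalized to GAPDH, GUSB or PPIA.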

SMN2 mRNA = test: Splicing RT-qPCR gene panel, SMN2 canonical junction (CJ) mRNA; conditions: Homo sapiens, Tables 4A/4B, read-out: SMN2 (IC50, decrease in CJ mRNA, gene panel)
In short: (§2)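 A673 or K562 cells were treated 24 h at 37 °C with an 11-point 3-fold dilution series (top 10 uM, ≤0.25% DMSO). Canonical-junction mRNA was measured in lysates by one-step RT-qPCR, normalized to GAPDH, GUSB or PPIA and DMSO control (2^(−ΔΔCt)), expressed as percentage response.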

HTT mRNA [1] = test: Splicing RT-qPCR assay, HTT canonical (CJ) and alternative (AJ) junction mRNA; conditions: Homo sapiens, A673 or K562 cells, 24 hours compound treatment; for IC50: 24 h, read-out: HTT CJ (IC50, decrease in canonical junction mRNA); for AC50: read-out: HTT AJ (AC50, increase in alternative junction mRNA)
In short: as §1

Target C mRNA = test: Splicing RT-qPCR gene panel, Target C canonical junction (CJ) mRNA; conditions: Homo sapiens, Tables 4A/4B, read-out: Target C (IC50, decrease in CJ mRNA, gene panel)
In short: as §2

HTT mRNA [2] = test: Splicing RT-qPCR gene panel, HTT canonical junction (CJ) mRNA; conditions: Homo sapiens, Tables 4A/4B, read-out: HTT (IC50, decrease in CJ mRNA, gene panel)
In short: as §2

[3] = 24 h, A673 or K562 cells, 24 hours compound treatment, RT-qPCR
[4] = 24 h, A673 or K562 cells, 24 hours compound treatment, RT-qPCR, read-out: MYB CJ (IC50, decrease in canonical junction mRNA)
[5] = Tables 4A/4B, canonical junction qPCR panel, read-out: MYB (IC50, decrease in CJ mRNA, gene panel)

| Structure (SMILES) | AC50 (MYB mRNA; [3]) [nM] | IC50 (MYB mRNA; [4]) [nM] | IC50 (MYB mRNA; [5]) [nM] | IC50 (SMN2 mRNA) [nM] | IC50 (HTT mRNA [1]) [nM] | AC50 (HTT mRNA [1]) [nM] | IC50 (Target C mRNA) [nM] | IC50 (HTT mRNA [2]) [nM] |
| --- | --- | --- | --- | --- | --- | --- | --- | --- |
| CCOc1nc(NC(=O)c2ccc(N3CCC(NC)C3)c3cn(C)nc23)cn2cc(C)nc12 (centres unmarked) [Compound 420, N-{8-ethoxy-2-methylimidazo[1,2-a]pyrazin-6-yl}-2-methyl-4-[3-(methylamino)pyrrolidin-1-yl]indazole-7-carboxamide] | 100 to 1000 | 100 to 1000 | 100 to 1000 | < 100 | > 10000 | > 10000 | > 10000 | > 10000 |
| Cc1cc2nc(NC(=O)c3ccc(N4CCNCC4)c4cn(C)nc34)cc(C)n2n1 [Compound 421, N-{2,7-dimethylpyrazolo[1,5-a]pyrimidin-5-yl}-2-methyl-4-(piperazin-1-yl) indazole-7-carboxamide] | > 10000 | > 10000 | > 10000 | > 10000 | > 10000 | > 10000 | > 10000 | > 10000 |
| CCn1cc2c(N3CCC(C)(NC)CC3)ccc(C(=O)Nc3cc(F)c4nc(C)cn4c3)c2n1 [Compound 423, 2-ethyl-N-{8-fluoro-2-methylimidazo[1,2-a]pyridin-6-yl}-4-[4-methyl-4-(methylamino)piperidin-1-yl]indazole-7-carboxamide] | < 100 | < 100 | < 100 | < 100 | 100 to 1000 | 100 to 1000 | 1000 to 10000 | 100 to 1000 |
| COC1CC(n2cc3c(N4CCNCC4)ccc(C(=O)Nc4cc(F)c5nc(C)cn5c4)c3n2)C1 (centres unmarked) [Compound 424] | > 10000 | > 10000 | > 10000 | 1000 to 10000 | > 10000 | > 10000 | > 10000 | > 10000 |
| CN[C@@H]1CCN(c2ccc(C(=O)Nc3cn4cc(C)nc4c(N(C)C)n3)c3nn(C)cc23)C1 [Compound 425] | > 10000 | > 10000 | > 10000 | > 10000 | > 10000 | > 10000 | > 10000 | > 10000 |
| CN[C@H]1CCN(c2ccc(C(=O)Nc3cn4cc(C)nc4c(N(C)C)n3)c3nn(C)cc23)C1 [Compound 426] | > 10000 | > 10000 | > 10000 | > 10000 | > 10000 | > 10000 | > 10000 | > 10000 |
| Cc1cn2cc(NC(=O)c3ccc(N4CCNCC4)c4nn(C)nc34)cc(F)c2n1 [Compound 427, N-{8-fluoro-2-methylimidazo[1,2-a]pyridin-6-yl}-2-methyl-7-(piperazin-1-yl)-1,2,3-benzotriazole-4-carboxamide] | 100 to 1000 | 100 to 1000 | 100 to 1000 | < 100 | 100 to 1000 | 100 to 1000 | 1000 to 10000 | 100 to 1000 |
| COc1c(NC(=O)c2ccc(N3CCNCC3)c3oc(C)nc23)cn2cc(C)nc2c1F [Compound 428, N-{8-fluoro-7-methoxy-2-methylimidazo[1,2-a]pyridin-6-yl}-2-methyl-7-(piperazin-1-yl)-1,3-benzoxazole-4-carboxamide] | < 100 | < 100 | < 100 | < 100 | < 100 | < 100 | 100 to 1000 | < 100 |
| CCn1cc2c(N3CCN[C@@H](CO)C3)ccc(C(=O)Nc3cc(F)c4nc(C)cn4c3)c2n1 [Compound 429, (R)-2-ethyl-N-(8-fluoro-2-methylimidazo[1,2-a]pyridin-6-yl)-4-(3-(hydroxymethyl)piperazin-1-yl)-2H-indazole-7-carboxamide] | 100 to 1000 | 100 to 1000 | 100 to 1000 | < 100 | 1000 to 10000 | 1000 to 10000 | > 10000 | 1000 to 10000 |
| CCn1cc2c(N3CCN[C@H](CO)C3)ccc(C(=O)Nc3cc(F)c4nc(C)cn4c3)c2n1 [Compound 430, (S)-2-ethyl-N-(8-fluoro-2-methylimidazo[1,2-a]pyridin-6-yl)-4-(3-(hydroxymethyl)piperazin-1-yl)-2H-indazole-7-carboxamide] | < 100 | < 100 | < 100 | < 100 | 1000 to 10000 | 1000 to 10000 | > 10000 | 1000 to 10000 |
